# According to ChEMBL document CHEMBL4145521, “Regioselective synthesis of 3,4-diaryl-5-unsubstituted isoxazoles, analogues of natural cytostatic combretastatin A4” (Eur J Med Chem, 2018):
# How the values were obtained:
# Type in all cases: functional
# MOLT-4 = test: Cytotoxicity against human MOLT4 cells incubated for 48 hrs by sulforhodamine B assay; conditions: MOLT-4, 48 h
# U-251 [1] = test: Cytotoxicity against human U251 cells assessed as cell growth at 0.01 uM incubated for 48 hrs by sulforhodamine B assay relative to control; conditions: U-251, 48 h, read-out: Activity
# OVCAR-4 [2] = test: Cytotoxicity against human OVCAR4 cells assessed as cell growth at 100 uM incubated for 48 hrs by sulforhodamine B assay relative to control; conditions: OVCAR-4, 48 h, read-out: Activity
# OVCAR-4 [3] = test: Cytotoxicity against human OVCAR4 cells incubated for 48 hrs by sulforhodamine B assay; conditions: OVCAR-4, 48 h
# COLO 205 = test: Cytotoxicity against human COLO205 cells incubated for 48 hrs by sulforhodamine B assay; conditions: COLO 205, 48 h
# OVCAR-8 = test: Cytotoxicity against human OVCAR8 cells incubated for 48 hrs by sulforhodamine B assay; conditions: OVCAR-8, 48 h
# T47D = test: Cytotoxicity against human T47D cells assessed as cell growth at 100 uM incubated for 48 hrs by sulforhodamine B assay relative to control; conditions: read-out: Activity
# HCT-116 = test: Cytotoxicity against human HCT116 cells assessed as cell growth at 0.1 uM incubated for 48 hrs by sulforhodamine B assay relative to control; conditions: HCT-116, 48 h, read-out: Activity
# HT-29 = test: Cytotoxicity against human HT-29 cells assessed as cell growth at 100 uM incubated for 48 hrs by sulforhodamine B assay relative to control; conditions: HT-29, 48 h, read-out: Activity
# U-251 [4] = test: Cytotoxicity against human U251 cells assessed as cell growth at 100 uM incubated for 48 hrs by sulforhodamine B assay relative to control; conditions: U-251, 48 h, read-out: Activity
# NCI/ADR-RES = test: Cytotoxicity against human NCI/ADR-RES cells assessed as cell growth at 0.01 uM incubated for 48 hrs by sulforhodamine B assay relative to control; conditions: read-out: Activity
# MDA-MB-231 = test: Cytotoxicity against human MDA-MB-231 cells assessed as cell growth at 1 uM incubated for 48 hrs by sulforhodamine B assay relative to control; conditions: MDA-MB-231, 48 h, read-out: Activity
# [5] = read-out: LC50 (the source's name)
# [6] = read-out: pLC50 (the source's name) (converted)
compound,measurement,setting,value
COc1ccc(-c2nocc2-c2cc(OC)c(OC)c(OC)c2)cc1,GI50,MOLT-4; read-out: GI50,0.708 µM
same,CC50,MOLT-4; [5],> 100 µM
same,TGI,MOLT-4; read-out: TGI,> 100 µM
same,GI50,MOLT-4; read-out: pGI50 (converted),0.708 µM
same,CC50,MOLT-4; [6],> 100 µM
same,TGI,MOLT-4; read-out: pTGI,> 100 µM
same,growth at 0.01 µM,U-251 [1],99%
same,growth at 100 µM,OVCAR-4 [2],15%
same,GI50,OVCAR-4 [3]; read-out: GI50,0.926 µM
same,LC50,OVCAR-4 [3]; read-out: LC50,> 100 µM
same,TGI,OVCAR-4 [3]; read-out: TGI,> 100 µM
same,GI50,OVCAR-4 [3]; read-out: pGI50 (converted),0.933 µM
same,LC50,OVCAR-4 [3]; read-out: pLC50 (converted),> 100 µM
same,TGI,OVCAR-4 [3]; read-out: pTGI,> 100 µM
same,GI50,COLO 205; read-out: GI50,0.0581 µM
same,CC50,COLO 205; [5],> 100 µM
same,TGI,COLO 205; read-out: TGI,1.91 µM
same,GI50,COLO 205; read-out: pGI50 (converted),0.0575 µM
same,CC50,COLO 205; [6],> 100 µM
same,TGI,COLO 205; read-out: pTGI (converted),1.91 µM
same,GI50,OVCAR-8; read-out: GI50,0.327 µM
same,CC50,OVCAR-8; [5],> 100 µM
same,TGI,OVCAR-8; read-out: TGI,> 100 µM
same,GI50,OVCAR-8; read-out: pGI50 (converted),0.324 µM
same,CC50,OVCAR-8; [6],> 100 µM
same,TGI,OVCAR-8; read-out: pTGI,> 100 µM
same,growth at 100 µM,T47D,-4%
same,growth at 0.1 µM,HCT-116,21%
same,growth at 100 µM,HT-29,-36%
same,growth at 100 µM,U-251 [4],-4%
same,growth at 0.01 µM,NCI/ADR-RES,92%
same,growth at 1 µM,MDA-MB-231,38%
